Measurements published in PMC10927086, “Effects of structurally distinct human HDAC6 and HDAC6/HDAC8 inhibitors against S. mansoni larval and adult worm stages” (PLOS Neglected Tropical Diseases, 2024).

Assays:
[1] = system: S. mansoni eggs laid by worm pairs; experiment: Egg counts and egg maturation staging (Vogel and Prata) in vitro; type: cell-based, Schistosoma mansoni; details: exp4
Excerpt: The eggs produced by worm pairs in vitro were counted at day 3 upon treatment using an inverted Leica DM IL microscope (Leica Microsystems, Wetzlar, Germany). Images were captured with a BX41 Olympus (Olympus, Tokyo, Japan) microscope and a brightfield objective 10× served by an Olympus DP23 microscope digital camera and visualized using “CellSens Entry” software (version 3.1.1). Egg maturation morphological score was assigned based on the Vogel and Prata’s staging system of egg maturation previously reported.
Therefore at 72 h upon worm pairs treatment the eggs were counted and classified by microscopic observation according to the Vogel and Prata staging system of egg maturation and grouped as immature (stages I and II), intermediate/developed (stages III–V), viable or damaged eggs.
Panel B. Histograms represent the percentages of eggs at different maturation stages +/- SEM counted at 72 h after treatment; 5–6 microscopy images of at least 3 independent experiments were analyzed. Filled red triangles indicate viable eggs at stages I–II (immature); empty red triangles indicate damaged/morphological abnormal eggs at stages I–II (immature); filled red arrows indicate viable eggs at stages III–V (intermediate/developed); empty red arrows indicate damaged/morphological abnormal eggs at stages III-V; ef, egg fragments; sp, sperm cells; oc, oocyte. Scale Bars = 200 μm.

[2] = MTT cytotoxicity assay on L929 fibroblasts; type: cell-based, murine; details: mouse, compounds 100-0.78 μM, GA 10-0.078 μM, 2 independent experiments
Method: (§1) The NCTC clone 929 (L-929) murine fibroblast isolated from subcutaneous connective tissue (ATCC-CCL-1) were cultured in Dulbecco’s Modified Eagle Medium (DMEM) supplemented with 10 mM Hepes (pH 6.98–7.30), 1 mM l-glutamine, 100 U/ml of penicillin/streptomycin (BioWhittaker, Lonza, EuroClone SpA), and heat-inactivated 10% FBS. All cells were cultured at 37°C in a 5% CO2 humidified incubator.
(§2) The MTT method was employed as previously described to determine the viability of fibroblast cell lines. Briefly, cells seeded into 96-well plates at a density of 20,000 cells/well after overnight incubation, were exposed to selected compounds at the indicated concentrations for 24–72 h. Next they were gently washed, incubated with MTT (bromuro di 3-(4,5-dimetiltiazol-2-il)-2,5-diphenyltetrazolium) for 4 h, and processed for color detection with DMSO. The resulting purple solution was spectrophotometrically measured at 570 nm using a Varioskan Lux instrument and Skanit software (Thermo Fisher Scientific).
(§3) The optical density values for both assays were expressed as a percentage of cell survival and normalized with the value of cells treated with vehicle (DMSO), and the data were analyzed using GraphPad Prism v9.5.1 software (San Diego, CA, USA).
(§4) The cytotoxicity of the hit compounds was assessed in two independent experiments on murine L929 and human BJ fibroblasts at 24 h by MTT assays. Vehicle (DMSO) and Gambogic acid (GA) were used as negative and positive control respectively. The compounds show a safe profile on both cell lines (S2 Table).
(§5) The IC50(μM) shown was calculated by dose-response curves of the compounds on murine L929 and human BJ fibroblast cells. […] The data are representative of 2 independent experiments. Gambogic acid (GA) and vehicle (DMSO) were used as positive and negative controls respectively. (DOCX)

[3] = MTT cytotoxicity assay on BJ fibroblasts; type: cell-based; details: human, compounds 100-0.78 μM, GA 10-0.078 μM, 2 independent experiments
Method: as §1, §2, §3, §4, §5

Row | SMILES | % Stage I/II damaged [1] | % Stage I/II viable [1] | %Stage II/IV/V viable [1] | %Stage III/IV/V damaged [1] | Stage I/II damaged counts [1] | Stage I/II viable (egg counts) [1] | Stage II/IV/V viable (egg counts) [1] | Stage III/IV/V damaged (egg counts) [1] | egg counts [1] | IC50 at 24 h [2] | IC50 at 24 h [3]
1 | CC(/C=C/C(=O)NO)=C\[C@@H](C)C(=O)c1ccc(N(C)C)cc1 [TSA, Trichostatin A, reference compound] | 100.0% | 0.0% | 0.0% | 0.0% | 1431 | 0 | 0 | 0 | 1431 |  | 
2 | CC(C)=CCC[C@]1(C)C=Cc2c(O)c3c(c(CC=C(C)C)c2O1)O[C@]12C(=C[C@@H]4C[C@H]1C(C)(C)O[C@@]2(C/C=C(/C)C(=O)O)C4=O)C3=O [GA, Gambogic acid, reference compound] |  |  |  |  |  |  |  |  |  | 500 nM | 350 nM
